Results from paper PMC3391087 (The Journal of Biological Chemistry, 2012).

Biological target: T1, aPIIQGAP1 (C-terminal aPI binding domain of IQGAP1) (Homo sapiens, UniProt P46940)
T1 sequence (P46940 1551-1657): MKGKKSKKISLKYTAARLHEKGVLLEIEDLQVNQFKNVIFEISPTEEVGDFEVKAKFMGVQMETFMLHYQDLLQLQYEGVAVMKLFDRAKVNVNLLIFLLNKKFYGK
Test: TR-FRET competition
Conditions: displacement of biotinylated PtdInsP3 (2.5 pmol); 50 nM GST fusion

IC50: ~500 nM
Substance: PtdInsP3
